From patent US20190136321A1, “USE OF TRANSLATIONAL PROFILING TO IDENTIFY TARGET MOLECULES FOR THERAPEUTIC TREATMENT” (The Regents of The University of California, priority 2013, published 2019)
Like-named read-outs stand apart in the source and are kept apart here.

Tests used:
V600E-BRAF tumor cells = conditions: cited from earlier work
Pten^L/L mice = assay: Pharmacological treatment of Pten^L/L mice (preclinical trial, prostate cancer); assay type: in vivo, mouse; conditions: Pten^L/L mice, RAD001 10 mg/kg daily
Procedure: Pten^loxp/loxp and Pb-cre mice where obtained from Jackson Laboratories and Mouse Models of Human Cancers Consortium (MMHCC), respectively, and maintained in the C57BL/6 background. Mice were maintained under specific pathogen-free conditions, and experiments were performed in compliance with institutional guidelines as approved by the Institutional Animal Care and Use Committee of UCSF.
Weight measurements were taken every 3 days to monitor for toxicity. For the 28-day study, mice were imaged via […] at day 0 and day 28 in a 14-T GE MR scanner (GE Healthcare).
Whole mouse prostates were removed from wild-type and Pten^L/L mice, microdissected, and frozen in liquid nitrogen. Frozen tissues were subsequently manually disassociated using a biopulverizer (Biospec) and additionally processed for protein and mRNA analysis as described above.
Prostates and lymph nodes were dissected from mice within 2 hr of the indicated treatment and fixed in 10% formalin overnight at 4° C. Tissues were subsequently dehydrated in ethanol (Sigma) at room temperature, mounted into paraffin blocks, and sectioned at […] Specimens were de-paraffinized and rehydrated using CitriSolv (Fisher) followed by serial ethanol washes. […] Sections were washed in distilled water followed by TBS washes. The sections were then incubated in 5% goat serum, 1% BSA in TBS for 1 hr at room temperature. Various primary antibodies were used, including those specific for keratin 5 (Covance), cytokeratin 8 (Abcam and Covance), YB1 (Abcam), vimentin (Abcam), MTA1 (Cell signaling), CD44 (BD Pharmingen), and the androgen receptor (Epitomics), which were diluted 1:50-1:500 in blocking solution and incubated on sections overnight at 4° C. Specimens were then washed in TBS and incubated with the appropriate Alexa 488 and 594 labeled secondary (Invitrogen) at 1:500 for 2 hr at room temperature, with the exception of YB1 which was incubated with biotinylated anti-rabbit secondary (Vector) followed by incubation with Alexa 594 labeled Streptavidin (Invitrogen). A final set of washes in TBS was completed at room temperature followed by mounting with DAPI Hardset Mounting Medium (Vector Lab). A Zeiss Spinning Disc confocal (Zeiss, CSU-X1) was used to image the sections at 40×-100×. Individual prostate cells were quantified for mean fluorescence intensity (m.f.i.) using the Axiovision (Zeiss, Release 4.8) densitometric tool.
Mouse lymph nodes were processed as described above and stained for CK8 and androgen receptor. Lymph nodes were imaged using a Zeiss AX10 microscope. Metastases were identified and areas were measured using the Axiovision (Zeiss, Release 4.8) measurement tool.
Immunohistochemistry was performed as described above (see “Immunofluorescence”) with the exception that immediately after antigen […] and TBS washes, specimens were incubated in 3% hydrogen peroxide in TBS followed by TBS washes. The following primary antibodies were used: phospho-AKT^S473 (Cell Signaling), phospho-rpS6^S240/244 (Cell Signaling), phospho-4EBP1^T37/46 (Cell Signaling), phospho-histone H3 (Upstate), and cleaved caspase (Cell Signaling). This was followed by TBS washes and incubation with the appropriate biotinylated secondary antibody (Vector Lab) for 30 min at room temperature. An ABC-HRP Kit (Vector Lab) was used to amplify the signal, followed by a brief incubation in hydrogen peroxide. The protein of interest was detected using DAB (Sigma). Specimens were counterstained with haematoxylin (Thermo Scientific), dehydrated with Citrisolv (Fisher), and mounted with Cytoseal XYL (Vector Lab).
Paraffin-embedded prostate specimens were deparaffinized and rehydrated as described above (see “Immunofluorescence”), stained with haematoxylin (Thermo Scientific), and washed with water. This was followed by a brief incubation in differentiation RTU (VWR) and two washes with water followed by two 70% ethanol washes. […]

PC3 cells = assay: Ribosome profiling and RNA-seq of PC3 cells (translational efficiency, mRNA abundance); assay type: cell-based, human;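 note: mRNA is RNA-seq average read density per codon over the coding sequence, translational efficiency is ribosome footprint over RNA-seq density, scaled so the median gene equals 1.0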
Procedure: Given the critical role for mTOR in prostate cancer, PC3 human prostate cancer cells, in which mTOR is constitutively hyperactivated, were used to delineate translationally controlled gene expression networks upon complete or partial mTOR inhibition. Ribosome profiling was optimized to assess quantitatively ribosome occupancy genome-wide in cancer cells.
Cells were subsequently treated with cycloheximide (100 μg ml^−1) and detergent lysis was performed in the dish. The lysate was treated with DNase and clarified, and a sample was taken for RNA-seq analysis. Lysates were subjected to ribosome footprinting by nuclease treatment. Ribosome-protected fragments were purified, and deep sequencing libraries were generated from these fragments, as well as from poly(A) mRNA purified from non-nuclease-treated lysates.
Ribosome footprint and RNA-seq sequencing reads were aligned against a library of transcripts from the UCSC Known Genes database GRCh37/hg19. The first 25 nucleotides of each read were aligned using Bowtie and this initial alignment was then extended to encompass the full fragment-derived portion of the sequencing read while excluding the linker sequence. Read density profiles were then constructed for the canonical transcript of each gene, using only reads with 0 or 1 total mismatches between the read sequence and the reference sequence, comprised of the transcript fragment followed by the linker sequence. Footprint reads were assigned to an A site nucleotide at position +15 to +17 of the alignment, based on the total fragment length; mRNA reads were assigned to the first nucleotide of the alignment. The average read density per codon was then computed for the coding sequence of each transcript, excluding the first 15 and last 5 codons, which can display atypical ribosome accumulation.
Average read density was used as a measure of mRNA abundance (RNA-seq reads) and of protein synthesis (ribosome profiling reads). For most analyses, genes were filtered to require at least 256 reads in the relevant RNA-seq samples. Translational efficiency was computed as the ratio of ribosome footprint read density to RNA-seq read density, scaled to normalize the translational efficiency of the median gene to 1.0 after excluding regulated genes (log2 fold-change ±1.5 after normalizing for the all-gene median). Changes in protein synthesis, mRNA abundance and translational efficiency were similarly computed as the ratio of read densities between different samples, normalized to give the median gene a ratio of 1.0. This normalization corrects for differences in the absolute number of sequencing reads obtained for different libraries.

O=C(NOC[C@H](O)CO)c1ccc(F)c(F)c1Nc1ccc(I)cc1F [PD0325901]
PNAS rna (V600E-BRAF tumor cells; gene ALF/GTF2A1L): 2.7 log2 MEKi/DMSO
PNAS rna (V600E-BRAF tumor cells; gene ARID5A): −1.7 log2 MEKi/DMSO
PNAS rna (V600E-BRAF tumor cells; gene B4GALT6): −1.7 log2 MEKi/DMSO
PNAS rna (V600E-BRAF tumor cells; gene BXDC2/BRIX1): −1.2 log2 MEKi/DMSO
PNAS rna (V600E-BRAF tumor cells; gene BYSL): −1.2 log2 MEKi/DMSO
PNAS rna (V600E-BRAF tumor cells; gene CCND1): −2.2 log2 MEKi/DMSO
PNAS rna (V600E-BRAF tumor cells; gene CD3EAP): −1.4 log2 MEKi/DMSO
PNAS rna (V600E-BRAF tumor cells; gene CHSY1): −1.3 log2 MEKi/DMSO
PNAS rna (V600E-BRAF tumor cells; gene DDX21): −1.1 log2 MEKi/DMSO
PNAS rna (V600E-BRAF tumor cells; gene DUSP4): −2.2 log2 MEKi/DMSO
PNAS rna (V600E-BRAF tumor cells; gene DUSP6): −2.6 log2 MEKi/DMSO
PNAS rna (V600E-BRAF tumor cells; gene EGR1): −2.1 log2 MEKi/DMSO
PNAS rna (V600E-BRAF tumor cells; gene ELOVL6): −1.5 log2 MEKi/DMSO
PNAS rna (V600E-BRAF tumor cells; gene ETV1): −2.6 log2 MEKi/DMSO
PNAS rna (V600E-BRAF tumor cells; gene ETV4): −2.2 log2 MEKi/DMSO
PNAS rna (V600E-BRAF tumor cells; gene ETV5): −1.7 log2 MEKi/DMSO
PNAS rna (V600E-BRAF tumor cells; gene FLJ10534/TSR1): −1.1 log2 MEKi/DMSO
PNAS rna (V600E-BRAF tumor cells; gene FOS): −3.4 log2 MEKi/DMSO
PNAS rna (V600E-BRAF tumor cells; gene FOSL1): −4.2 log2 MEKi/DMSO
PNAS rna (V600E-BRAF tumor cells; gene GEMIN4): −1.2 log2 MEKi/DMSO
PNAS rna (V600E-BRAF tumor cells; gene GNL3): −1.0 log2 MEKi/DMSO
PNAS rna (V600E-BRAF tumor cells; gene GPR3): −2.1 log2 MEKi/DMSO
PNAS rna (V600E-BRAF tumor cells; gene GTPBP4): −1.1 log2 MEKi/DMSO
PNAS rna (V600E-BRAF tumor cells; gene HMGA2): −1.6 log2 MEKi/DMSO
PNAS rna (V600E-BRAF tumor cells; gene HSPC111/NOP16): −1.3 log2 MEKi/DMSO
PNAS rna (V600E-BRAF tumor cells; gene HYDIN): 2.1 log2 MEKi/DMSO
PNAS rna (V600E-BRAF tumor cells; gene IER3): −3.3 log2 MEKi/DMSO
PNAS rna (V600E-BRAF tumor cells; gene IL8): −2.5 log2 MEKi/DMSO
PNAS rna (V600E-BRAF tumor cells; gene KIR3DL2): 1.7 log2 MEKi/DMSO
PNAS rna (V600E-BRAF tumor cells; gene LIF): −3.2 log2 MEKi/DMSO
PNAS rna (V600E-BRAF tumor cells; gene LNK/SH2B3): −2.0 log2 MEKi/DMSO
PNAS rna (V600E-BRAF tumor cells; gene MAFF): −2.7 log2 MEKi/DMSO
PNAS rna (V600E-BRAF tumor cells; gene MAP2K3): −1.5 log2 MEKi/DMSO
PNAS rna (V600E-BRAF tumor cells; gene MYC): −2.4 log2 MEKi/DMSO
PNAS rna (V600E-BRAF tumor cells; gene PHLDA2): −2.2 log2 MEKi/DMSO
PNAS rna (V600E-BRAF tumor cells; gene PLK3): −2.3 log2 MEKi/DMSO
PNAS rna (V600E-BRAF tumor cells; gene POLR1C): −1.0 log2 MEKi/DMSO
PNAS rna (V600E-BRAF tumor cells; gene POLR3G): −1.0 log2 MEKi/DMSO
PNAS rna (V600E-BRAF tumor cells; gene PPAN): −1.2 log2 MEKi/DMSO
PNAS rna (V600E-BRAF tumor cells; gene PPAT): −1.1 log2 MEKi/DMSO
PNAS rna (V600E-BRAF tumor cells; gene PYCRL): −2.6 log2 MEKi/DMSO
PNAS rna (V600E-BRAF tumor cells; gene RRS1): −1.8 log2 MEKi/DMSO
PNAS rna (V600E-BRAF tumor cells; gene SEMA6A): 2.1 log2 MEKi/DMSO
PNAS rna (V600E-BRAF tumor cells; gene SLC1A5): −1.2 log2 MEKi/DMSO
PNAS rna (V600E-BRAF tumor cells; gene SLC4A7): −1.6 log2 MEKi/DMSO
PNAS rna (V600E-BRAF tumor cells; gene SPRED2): −1.0 log2 MEKi/DMSO
PNAS rna (V600E-BRAF tumor cells; gene SPRY2): −4.0 log2 MEKi/DMSO
PNAS rna (V600E-BRAF tumor cells; gene SPRY4): −2.6 log2 MEKi/DMSO
PNAS rna (V600E-BRAF tumor cells; gene TNC): −2.5 log2 MEKi/DMSO
PNAS rna (V600E-BRAF tumor cells; gene TNFRSF12A): −1.5 log2 MEKi/DMSO
PNAS rna (V600E-BRAF tumor cells; gene WDR3): −1.1 log2 MEKi/DMSO
PNAS rna (V600E-BRAF tumor cells; gene YRDC): −1.2 log2 MEKi/DMSO

CO[C@H]1C[C@@H]2CC[C@@H](C)[C@@](O)(O2)C(=O)C(=O)N2CCCC[C@H]2C(=O)O[C@H]([C@H](C)C[C@@H]2CC[C@@H](OCCO)[C@H](OC)C2)CC(=O)[C@H](C)/C=C(\C)[C@@H](O)[C@@H](OC)C(=O)[C@H](C)C[C@H](C)/C=C/C=C/C=C/1C [RAD001]
regression of PIN lesions (Pten^L/L mice; 28 days): only partial regression
proliferation (phospho-histone H3) (Pten^L/L mice; ATP site inhibitor of mTOR 1 mg/kg daily): limited decrease

CO[C@H]1C[C@@H]2CC[C@@H](C)[C@@](O)(O2)C(=O)C(=O)N2CCCC[C@H]2C(=O)O[C@H]([C@H](C)C[C@@H]2CC[C@@H](O)[C@H](OC)C2)CC(=O)[C@H](C)/C=C(\C)[C@@H](O)[C@@H](OC)C(=O)[C@H](C)C[C@H](C)/C=C/C=C/C=C/1C [rapamycin]
TrlEff (PC3 cells; gene ACTG1): −0.07
mRNA (PC3 cells; gene ACTG1): 0.02
mRNA (PC3 cells; gene AGRN): 0.01
mRNA (PC3 cells; gene AHCY): 0.20
mRNA (PC3 cells; gene ALKBH7): 0.06
TrlEff (PC3 cells; gene AP2A1): −0.04
mRNA (PC3 cells; gene AP2A1): 0.09
TrlEff (PC3 cells; gene ARD1A): 0.01
mRNA (PC3 cells; gene ARD1A): −0.04
TrlEff (PC3 cells; gene C21orf66): −0.09
mRNA (PC3 cells; gene C21orf66): −0.30
TrlEff (PC3 cells; gene CIRBP): 0.10
mRNA (PC3 cells; gene CLPTM1): 0.07
mRNA (PC3 cells; gene COL6A2): −0.08
mRNA (PC3 cells; gene ECSIT): −0.04
TrlEff (PC3 cells; gene EEF1A2): −0.03
mRNA (PC3 cells; gene EEF1A2): 0.03
TrlEff (PC3 cells; gene EVPL): 0.30
mRNA (PC3 cells; gene EVPL): −0.08
mRNA (PC3 cells; gene FAM128B): 0.06
mRNA (PC3 cells; gene IPO7): 0.20
TrlEff (PC3 cells; gene MTA1): −0.05
mRNA (PC3 cells; gene MTA1): 0.00
mRNA (PC3 cells; gene NCLN): −0.05
TrlEff (PC3 cells; gene PABPC4): −0.80
TrlEff (PC3 cells; gene PACS1): 0.04
mRNA (PC3 cells; gene PACS1): 0.07
TrlEff (PC3 cells; gene PGLS): 0.20
mRNA (PC3 cells; gene PGLS): 0.03
mRNA (PC3 cells; gene PGM1): 0.40
mRNA (PC3 cells; gene RABGGTB): −0.20
mRNA (PC3 cells; gene RPL6): 0.09
TrlEff (PC3 cells; gene RPL8): −0.40
TrlEff (PC3 cells; gene RPL9): −1.00
mRNA (PC3 cells; gene RPL10): 0.09
mRNA (PC3 cells; gene RPL11): 0.09
mRNA (PC3 cells; gene RPL12): 0.07
mRNA (PC3 cells; gene RPL14): 0.07
mRNA (PC3 cells; gene RPL17): 0.05
mRNA (PC3 cells; gene RPL18): 0.08
mRNA (PC3 cells; gene RPL22): 0.08
mRNA (PC3 cells; gene RPL23): 0.09
mRNA (PC3 cells; gene RPL27): 0.05
mRNA (PC3 cells; gene RPL27A): 0.06
TrlEff (PC3 cells; gene RPL29): −0.50
mRNA (PC3 cells; gene RPL29): 0.10
mRNA (PC3 cells; gene RPL31): −0.02
mRNA (PC3 cells; gene RPL36): 0.09
mRNA (PC3 cells; gene RPL37A): 0.08
mRNA (PC3 cells; gene RPL41): 0.04
mRNA (PC3 cells; gene RPS2): 0.07
mRNA (PC3 cells; gene RPS8): 0.09
TrlEff (PC3 cells; gene RPS9): −0.60
mRNA (PC3 cells; gene RPS9): 0.10
mRNA (PC3 cells; gene RPS13): 0.07
TrlEff (PC3 cells; gene RPS14): −0.60
mRNA (PC3 cells; gene RPS14): 0.10
TrlEff (PC3 cells; gene RPS15): 0.03
mRNA (PC3 cells; gene RPS15): −0.01
mRNA (PC3 cells; gene RPS15A): 0.07
TrlEff (PC3 cells; gene RPS21): −0.60
mRNA (PC3 cells; gene RPS21): −0.01
mRNA (PC3 cells; gene RPS25): 0.04
mRNA (PC3 cells; gene RPS27): 0.10
TrlEff (PC3 cells; gene RPS28): −0.80
mRNA (PC3 cells; gene RPS28): 0.01
mRNA (PC3 cells; gene RPS29): −0.01
TrlEff (PC3 cells; gene SLC25A5): −0.30
mRNA (PC3 cells; gene TKT): 0.02
TrlEff (PC3 cells; gene VIM): −0.40
